{
  "source": "patent US20080306080A1",
  "about": "“NEUTROPHILIA INHIBITOR” (Nissan Chemical Industries, Ltd., priority 2003, published 2008)",
  "key": {"[1]": {"system": "neutrophilia in the rat airway", "assay": "Effect on neutrophilia in the rat airway (LPS inhalation, neutrophil count in bronchoalveolar washings)", "format": "in vivo, Wister rats", "conditions": "oral 1 mg/kg, 3 mg/kg and 10 mg/kg, 30 min before LPS inhalation; washings about 5 hours after inhalation", "method": "Male Wister rats weighing from 100 to 200 g were put in a clear plastic inhalation box for small animals (W30×H30×D30 cm), and 30 mL of a lipopolysaccharide solution (LPS E. coli 0.3 mg/mL saline) atomized to an average particle size of 2.0-6.0 μm was administered by inhalation from an ultrasonic nebulizer (TUR-3200, NIHON KOHDEN) for 30 minutes.\nThe lipopolisaccharide inhalation was preceded, 30 minutes in advance, by oral administration of Compound A suspended in 0.5% methylcellulose (MC) at doses of 1 mg/4 mL/kg, 3 mg/4 mL/kg and 10 mg/4 mL/kg, or by oral administration of 0.5% MC at a dose of 2 mL/kg to a solvent group. […]\nAbout 5 hours after the lipopolisaccharide inhalation, bronchoalveolar washings were collected. […] The total number of leukocytes in the suspension was counted with a multichannel blood cell counter and designated as the total leukocyte count.\nFurther, after the cell suspension was adjusted to a total leukocyte count of 1×10^6 cells/mL, 100 μL of the suspension was centrifuged at room temperature at 400 rpm for 4 minutes in a cytocentrifuge (Thermo Shandon) and made into smears. The smears were stained with Diff-Quick (International Reagents Co., Ltd.), and monocytes, eosinophils and neutrophils were counted under an inverted microscope (×400) to about 500 cells. […]"}, "[2]": {"system": "airway neutrophilia induced by exposure to tobacco smoke", "assay": "Guinea pig respiratory dysfunction model with airway neutrophilia induced by exposure to tobacco smoke", "format": "in vivo, Hartley guinea pigs", "conditions": "oral 10 mg/kg before each tobacco smoke exposure, 3 weeks, measured the day after", "method": "Hartley guinea pigs weighing from 350 to 450 g were exposed to cigarette smoke for an hour per day, five days per week, for 3 weeks, by using a tobacco smoke exposer and an exposure chamber (Flow-pasttype nose-only inhalation chamber, Muenster).\nThe tobacco smoke exposure was preceded, 15-45 minutes in advance, by oral administration of the compound suspended in 0.5% methylcellulose (MC) at a dose of 10 mg/2 mL/kg or by oral administration of 0.5% MC at a dose of 2 mL/kg to a solvent group. To the non-treatment group, 0.5% MC was orally administered at a dose of 2 mL/kg, 15-45 minutes before air exposure. From 4 to 6 […] were carried out for each group. The airway resistances and neutrophil counts were measured the day after three weeks of the tobacco smoke exposure. The airway resistances were measured by double chamber plethysmography with a respiratory function tester (Puloms-1, M.I.P.S.) during wakefulness. The neutrophil counts were measured in the same manner as in Test Example 1. The effect of Compound A was evaluated by calculating the suppression ratio (%) in accordance with the following formula.\nSuppression ratio=((measured value for the control group−measured value for the normal value)−(measured value for the Compound A group−measured value for the normal group))×100/(measured value for the control group−measured value for the normal value)"}},
  "data": [
    {"smiles": "Cl.O=c1[nH]nc(OCCCc2ccc(Cl)cc2)c(NCc2cccnc2)c1Br", "note": "[Compound A, 4-bromo-6-[3-(4-chlorophenyl)propoxy]-5-(3-pyridylmethylamino)-3(2H)-pyridazinone hydrochloride]", "values": [
      {"measurement": "antineutrophilia effect in the rat airways (neutrophil counts in bronchoalveolar washings)", "setting": "[1]", "value": "had antineutrophilia effect"},
      {"measurement": "suppression ratio of increase in airway resistance", "setting": "[2]; double chamber plethysmography", "value": 100, "unit": "%"},
      {"measurement": "suppression ratio of neutrophilia (neutrophil count)", "setting": "[2]", "value": 73, "unit": "%"}
    ]}
  ]
}
